Test system: iNOS expression in BV-2 cells
Assay: iNOS protein expression (western blot) in LPS-stimulated BV-2 cells
Assay type: cell-based, murine
Conditions: 2 μg/mL LPS, 14 h
Excerpt: It is well-established that reactive oxygen species (ROS) and nitric oxide (NO), produced during microglia activation, contribute to inflammatory response and cytotoxic damage to the surrounding neurons and neighbouring cells. Recent studies have shown that BV-2 microglial cell could serve as an in vitro model to mimic such neuroinflammatory states when stimulated with lipopolysaccharide (LPS)[49]. LPS activates BV-2 cells by triggering a cascade of inflammatory events which includes the production of NO. This event is characterized by the generation of the biomarker, inducible nitric oxide synthase (iNOS), as well as ROS. Chuang et al.[50] have also shown that cPLA2 is a major contributor in this pathway and inhibiting this enzyme reduces the production of the neurotoxic mediators and provide neuroprotective effects. Therefore to investigate the ability of 2i in inhibiting cPLA2 in a neuroinflammatory model, BV-2 cells were treated with LPS (2 μg/mL), incubated for different time points, collected and lysed for protein extraction. […] The cPLA2 level was also determined and found to be largely constant throughout the entire activation process with a slight drop at the 24 h timepoint (Fig. 3F). Next, 2i (1, 10 and 20 μM) were incubated together with LPS in the BV-2 cells for 14 h (Fig. 4A,B). […]

CCCCC/C=C\C/C=C\C/C=C\C/C=C\CCCCC(=O)Nc1cccc(C(=O)O)c1 [2i]
reduction of LPS-induced iNOS expression (20 µM): 50% | iNOS level, concentration dependence (1–20 μM): dose-dependent decrease in the iNOS level
